Source: patent publication US10766879B2, “Pyrimidine derivatives as kinase inhibitors and their therapeutical applications” (NantBioScience, Inc., priority 2015, dated 2020)

What was measured:
[1] = test system: RT112; experiment: CellTiterblue viability, 72 hr, RT112; assay type: cell-based; details: Homo sapiens, RT-112, RT112 cells
Method: (§1) A number of studies were performed to analyze the consequences of tyrosine kinase inhibition in cell lines. To do this, 1000 cells are seeded in 27 μl/well in 384-well microplates, which are then placed in a humidified CO2 incubator at 37° C. overnight. The next day, 3 μl/well of 10× concentrated drug is added and the plates are returned to the incubator for 72 hr. After 72 hr incubation, plates are removed and […] CellTiterblue (Promega) viability reagent is added. Plates are returned to the incubator for 3 hr, after which it is fluorescence measurements are read on the Victor X3 plate reader (Perkin Elmer). Data are analyzed using Excel (Microsoft), and GI50 values are determined using Prism (Graphpad).

[2] = target: T1, Tie2 (Homo sapiens, UniProt Q02763); experiment: KinaseProfiler kinase inhibition assay, Tie2; assay type: biochemical; details: 1 μM compound
T1 construct: purchased Millipore (KinaseProfiler Service)
T1 sequence (Q02763 23-1124): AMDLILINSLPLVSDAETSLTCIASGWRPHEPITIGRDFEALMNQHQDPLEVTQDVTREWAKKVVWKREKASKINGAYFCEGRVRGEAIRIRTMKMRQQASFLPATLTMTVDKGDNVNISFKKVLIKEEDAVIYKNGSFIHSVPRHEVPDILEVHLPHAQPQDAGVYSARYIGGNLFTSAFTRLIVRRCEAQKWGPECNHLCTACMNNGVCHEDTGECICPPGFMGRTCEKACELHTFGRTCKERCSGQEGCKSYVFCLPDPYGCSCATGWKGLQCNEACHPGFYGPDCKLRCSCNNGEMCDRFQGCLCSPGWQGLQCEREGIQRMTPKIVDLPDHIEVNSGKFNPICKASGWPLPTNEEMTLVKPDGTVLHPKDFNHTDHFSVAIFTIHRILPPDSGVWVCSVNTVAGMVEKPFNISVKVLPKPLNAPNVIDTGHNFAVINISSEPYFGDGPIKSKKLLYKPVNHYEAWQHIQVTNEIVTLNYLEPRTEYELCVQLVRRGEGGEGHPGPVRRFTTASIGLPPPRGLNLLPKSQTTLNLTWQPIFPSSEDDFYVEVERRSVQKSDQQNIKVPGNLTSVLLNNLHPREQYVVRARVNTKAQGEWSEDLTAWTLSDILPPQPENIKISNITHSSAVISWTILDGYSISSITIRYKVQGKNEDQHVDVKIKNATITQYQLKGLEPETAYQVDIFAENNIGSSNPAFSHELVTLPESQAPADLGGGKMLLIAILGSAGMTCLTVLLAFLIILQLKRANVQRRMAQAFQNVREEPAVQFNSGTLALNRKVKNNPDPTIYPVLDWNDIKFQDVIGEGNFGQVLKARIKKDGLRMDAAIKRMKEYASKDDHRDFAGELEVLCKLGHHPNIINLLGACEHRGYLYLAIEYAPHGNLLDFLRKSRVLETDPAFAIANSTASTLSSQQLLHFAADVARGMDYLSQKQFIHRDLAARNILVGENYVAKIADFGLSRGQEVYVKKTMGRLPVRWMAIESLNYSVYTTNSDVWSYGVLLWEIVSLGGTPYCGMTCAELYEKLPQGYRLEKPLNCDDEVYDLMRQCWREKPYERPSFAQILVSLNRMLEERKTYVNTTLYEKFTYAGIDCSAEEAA

[3] = test system: MDA-MB134; experiment: CellTiterblue viability, 72 hr, MDA-MB134; assay type: cell-based; details: MDA-MB134 cells
Method: as §1

[4] = target: T2, c-Src kinase (Homo sapiens, UniProt P12931); experiment: KinaseProfiler kinase inhibition assay, c-Src; assay type: biochemical; details: 1 μM compound; read-out: % Inhibition @1 μM cSrc
T2 construct: purchased Millipore (KinaseProfiler Service)
T2 sequence (P12931 whole entry): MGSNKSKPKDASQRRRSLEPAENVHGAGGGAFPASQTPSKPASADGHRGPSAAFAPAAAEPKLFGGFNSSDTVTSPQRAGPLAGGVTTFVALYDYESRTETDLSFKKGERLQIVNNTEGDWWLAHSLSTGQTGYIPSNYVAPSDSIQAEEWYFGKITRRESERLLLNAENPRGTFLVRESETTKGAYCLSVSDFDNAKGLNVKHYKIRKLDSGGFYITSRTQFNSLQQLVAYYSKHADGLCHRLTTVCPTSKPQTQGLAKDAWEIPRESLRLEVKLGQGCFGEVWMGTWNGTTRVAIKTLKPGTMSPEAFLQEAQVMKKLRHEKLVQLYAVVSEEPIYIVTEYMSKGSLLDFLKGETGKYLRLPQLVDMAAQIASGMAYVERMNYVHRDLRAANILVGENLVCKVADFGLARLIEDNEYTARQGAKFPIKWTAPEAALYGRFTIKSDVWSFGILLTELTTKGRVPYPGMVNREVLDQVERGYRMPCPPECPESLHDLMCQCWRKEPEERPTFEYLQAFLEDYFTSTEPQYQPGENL

[5] = test system: KG1a; experiment: CellTiterblue viability, 72 hr, KG1a; assay type: cell-based; details: Homo sapiens, KG-1a, KG1a cells
Method: as §1

[6] = target: T3, Alk kinase (Homo sapiens, UniProt Q9UM73); experiment: KinaseProfiler kinase inhibition assay, Alk; assay type: biochemical; details: 1 μM compound
T3 construct: purchased Millipore (KinaseProfiler Service)

[7] = target: T4, phospho-FGFR2 (Homo sapiens, UniProt P21802); experiment: phospho-FGFR ELISA on Kato III cells; assay type: cell-based; details: read-out: EC50 (nM) P-FGFR2, Kato III cells
T4 construct: endogenous in cells; host or cells: Kato III cells
Method: For the phospho-FGFR, the following assay Protocol was used. 25,000 cells are seeded in 90 μl/well in 96-well microplates, which are then placed in a humidified CO2 incubator at 37° C. overnight. 96-well ELISA plates (Mesoscale Discovery) are coated with capture antibody (R&D Systems Duo-Set) at 4 μg/ml, 30 μl/well. The next day, 10 μl/well of 10× concentrated drug is added and the plates are returned to the incubator for […]. ELISA plates are washed using an automated plate washer (BioTek Instruments). After 30 min, cells are inverted and gently tapped to remove excess medium, and immediately placed on ice. 30 μl mPer cell lysis reagent (Thermo Scientific) with protease and phosphatase inhibitors is added/well. After 15 min on ice, lysates are mixed and 30 μl transferred to the ELISA plate. Plates are incubated for 2 hr, washed, and 30 μl/well detection antibody is added. After 1 hr, plates are washed and 30 μl “SulfoTag” (MesoScale Discovery) detection reagent is added. After 1 hr, plates are washed and 150 μl/well read solution is added. Electrochemiluminescence is determined on the Mesoscale Discovery Sector Imager 2000. Data are analyzed using Excel (Microsoft), and EC50 values are determined using Prism (Graphpad).

[8] = target: T5, Ret kinase (Homo sapiens, UniProt P07949); experiment: KinaseProfiler kinase inhibition assay, Ret; assay type: biochemical; details: 1 μM compound
T5 construct: purchased Millipore (KinaseProfiler Service)
T5 sequence (P07949 29-1114): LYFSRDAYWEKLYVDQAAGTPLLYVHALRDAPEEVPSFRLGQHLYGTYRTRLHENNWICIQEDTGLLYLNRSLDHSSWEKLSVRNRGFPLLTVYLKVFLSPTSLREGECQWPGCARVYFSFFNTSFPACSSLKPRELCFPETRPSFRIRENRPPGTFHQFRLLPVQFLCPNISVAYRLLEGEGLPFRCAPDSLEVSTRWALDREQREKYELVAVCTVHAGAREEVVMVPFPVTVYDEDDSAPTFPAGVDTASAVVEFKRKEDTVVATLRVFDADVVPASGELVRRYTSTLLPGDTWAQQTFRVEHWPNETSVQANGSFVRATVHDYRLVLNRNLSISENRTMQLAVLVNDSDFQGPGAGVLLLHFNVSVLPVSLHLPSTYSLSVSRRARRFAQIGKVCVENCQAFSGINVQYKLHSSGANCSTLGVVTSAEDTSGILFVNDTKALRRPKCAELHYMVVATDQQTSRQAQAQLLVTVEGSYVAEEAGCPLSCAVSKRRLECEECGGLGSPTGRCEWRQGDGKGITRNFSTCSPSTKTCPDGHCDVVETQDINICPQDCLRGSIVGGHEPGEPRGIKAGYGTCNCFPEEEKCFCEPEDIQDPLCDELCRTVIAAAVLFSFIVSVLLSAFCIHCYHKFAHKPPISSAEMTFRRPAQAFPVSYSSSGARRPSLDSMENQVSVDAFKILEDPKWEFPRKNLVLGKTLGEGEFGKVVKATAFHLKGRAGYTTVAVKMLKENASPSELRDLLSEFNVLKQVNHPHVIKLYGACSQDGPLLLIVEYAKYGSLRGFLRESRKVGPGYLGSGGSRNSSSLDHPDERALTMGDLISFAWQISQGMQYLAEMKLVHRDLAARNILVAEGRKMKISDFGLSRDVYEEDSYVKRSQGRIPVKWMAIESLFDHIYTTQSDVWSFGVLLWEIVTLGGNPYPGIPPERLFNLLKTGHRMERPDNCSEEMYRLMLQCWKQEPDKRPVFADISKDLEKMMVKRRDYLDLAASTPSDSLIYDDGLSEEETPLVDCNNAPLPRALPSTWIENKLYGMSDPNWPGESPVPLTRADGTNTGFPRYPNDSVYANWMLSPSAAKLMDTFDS

[9] = target: T6, KDR kinase (Homo sapiens, UniProt P35968); experiment: KinaseProfiler kinase inhibition assay, KDR; assay type: biochemical; details: 1 μM compound
T6 construct: purchased Millipore (KinaseProfiler Service)
T6 sequence (P35968 20-1356): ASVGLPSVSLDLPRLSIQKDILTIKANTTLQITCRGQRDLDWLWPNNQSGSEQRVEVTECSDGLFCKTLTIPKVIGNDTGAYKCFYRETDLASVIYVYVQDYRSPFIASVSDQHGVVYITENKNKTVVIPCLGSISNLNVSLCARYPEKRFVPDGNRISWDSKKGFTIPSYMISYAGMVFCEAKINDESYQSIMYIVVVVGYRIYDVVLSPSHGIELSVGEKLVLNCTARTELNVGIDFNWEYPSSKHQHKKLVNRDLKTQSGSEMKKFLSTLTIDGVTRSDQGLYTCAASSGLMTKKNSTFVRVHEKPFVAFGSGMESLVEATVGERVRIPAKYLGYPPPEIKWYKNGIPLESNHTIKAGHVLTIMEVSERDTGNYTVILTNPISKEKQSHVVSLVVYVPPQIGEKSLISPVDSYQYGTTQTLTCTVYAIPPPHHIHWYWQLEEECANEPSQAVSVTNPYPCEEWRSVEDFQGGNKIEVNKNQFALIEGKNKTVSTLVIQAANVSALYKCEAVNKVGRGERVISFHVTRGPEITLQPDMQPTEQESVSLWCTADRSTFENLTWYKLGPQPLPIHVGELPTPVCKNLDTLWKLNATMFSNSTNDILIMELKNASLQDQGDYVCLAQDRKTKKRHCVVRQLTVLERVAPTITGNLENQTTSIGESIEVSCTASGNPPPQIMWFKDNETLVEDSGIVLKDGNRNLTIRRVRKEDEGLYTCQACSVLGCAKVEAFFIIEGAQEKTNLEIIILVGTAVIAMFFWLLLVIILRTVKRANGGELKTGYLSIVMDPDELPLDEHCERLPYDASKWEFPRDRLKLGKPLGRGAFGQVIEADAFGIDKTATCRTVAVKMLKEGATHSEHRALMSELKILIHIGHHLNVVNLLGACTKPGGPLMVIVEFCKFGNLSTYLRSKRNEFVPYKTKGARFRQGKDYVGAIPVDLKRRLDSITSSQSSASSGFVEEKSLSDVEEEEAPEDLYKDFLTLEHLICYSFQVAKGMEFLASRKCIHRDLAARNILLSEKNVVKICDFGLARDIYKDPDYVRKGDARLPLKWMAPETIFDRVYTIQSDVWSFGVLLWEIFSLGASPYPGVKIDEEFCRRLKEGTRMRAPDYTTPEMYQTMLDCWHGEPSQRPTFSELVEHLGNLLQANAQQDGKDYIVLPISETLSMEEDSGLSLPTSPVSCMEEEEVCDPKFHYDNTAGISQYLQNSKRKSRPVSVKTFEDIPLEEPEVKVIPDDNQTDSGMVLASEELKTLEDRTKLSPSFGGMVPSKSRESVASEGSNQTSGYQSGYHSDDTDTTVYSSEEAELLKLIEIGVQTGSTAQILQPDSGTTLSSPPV

[10] = target: T7, FGFR1 kinase (Homo sapiens, UniProt P11362); experiment: KinaseProfiler kinase inhibition assay, FGFR1; assay type: biochemical; details: 1 μM compound
T7 construct: purchased Millipore (KinaseProfiler Service)
T7 sequence (P11362 22-822): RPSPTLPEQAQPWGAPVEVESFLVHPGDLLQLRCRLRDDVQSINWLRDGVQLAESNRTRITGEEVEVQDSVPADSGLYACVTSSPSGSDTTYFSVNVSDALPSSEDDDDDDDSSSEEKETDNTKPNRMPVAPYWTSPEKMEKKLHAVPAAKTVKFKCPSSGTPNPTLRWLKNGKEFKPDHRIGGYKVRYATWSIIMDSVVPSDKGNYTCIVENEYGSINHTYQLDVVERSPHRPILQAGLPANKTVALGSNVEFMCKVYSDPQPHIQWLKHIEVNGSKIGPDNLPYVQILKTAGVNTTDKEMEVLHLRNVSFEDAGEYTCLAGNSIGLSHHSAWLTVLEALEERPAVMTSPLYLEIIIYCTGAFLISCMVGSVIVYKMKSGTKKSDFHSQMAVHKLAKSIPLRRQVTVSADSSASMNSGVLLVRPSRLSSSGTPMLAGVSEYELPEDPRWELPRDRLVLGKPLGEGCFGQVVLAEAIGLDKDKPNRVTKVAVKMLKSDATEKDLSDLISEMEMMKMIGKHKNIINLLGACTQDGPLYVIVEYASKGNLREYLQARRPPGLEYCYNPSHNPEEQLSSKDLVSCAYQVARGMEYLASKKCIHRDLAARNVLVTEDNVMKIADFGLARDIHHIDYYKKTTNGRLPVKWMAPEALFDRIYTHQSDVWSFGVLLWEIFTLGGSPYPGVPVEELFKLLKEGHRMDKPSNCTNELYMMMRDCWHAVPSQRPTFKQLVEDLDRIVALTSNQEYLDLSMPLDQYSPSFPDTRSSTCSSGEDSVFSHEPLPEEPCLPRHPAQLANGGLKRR

[11] = target: T8, Abl kinase (Homo sapiens, UniProt P00519); experiment: KinaseProfiler kinase inhibition assay, Abl; assay type: biochemical; details: 1 μM compound
T8 construct: purchased Millipore (KinaseProfiler Service)

[12] = test system: AN3_CA; experiment: CellTiterblue viability, 72 hr, AN3_CA; assay type: cell-based; details: Homo sapiens, AN3-CA, AN3_CA cells
Method: as §1

[13] = test system: Kato III; experiment: CellTiterblue viability, 72 hr, Kato III; assay type: cell-based; details: Homo sapiens, Kato III cells
Method: as §1

| Compound | GI50 [1] | inhibition at 1 µM [2] | GI50 [3] | inhibition at 1 µM [4] | GI50 [5] | inhibition at 1 µM [6] | EC50 [7] | inhibition at 1 µM [8] | inhibition at 1 µM [9] | inhibition at 1 µM [10] | inhibition at 1 µM [11] | GI50 [12] | GI50 [13] |
| --- | --- | --- | --- | --- | --- | --- | --- | --- | --- | --- | --- | --- | --- |
| Cc1cc2c(F)c(Oc3ncnc(Nc4cc(C5CC5)n[nH]4)c3F)ccc2[nH]1 [Compound 32, N-(3-cyclopropyl-1H-pyrazol-5-yl)-5-fluoro-6-((4-fluoro-2-methyl-1H-indol-5-yl)oxy) pyrimidin-4-amine] | > 500 nM | -9% | 138 nM | -7% | > 500 nM | -21% | > 500 nM | -33% | 54% | 40% | 0% | > 500 nM | > 500 nM |
| CCN1CCN(c2ccc(Nc3cc(Oc4cc(F)c5[nH]c(C)cc5c4F)ncn3)cc2)CC1 [Compound 49] | > 500 nM | 69% | 56 nM | 74% | 60 nM | 69% | 75 nM | 53% | 96% | 99% | 68% | > 500 nM | 207 nM |
| CCN1CCN(c2ccc(Nc3ncnc(Oc4ccc5[nH]c(C)cc5c4F)c3C#N)cc2)CC1 [Compound 53] | > 500 nM | 5% | 5 nM | 10% | 10 nM | 49% | 18 nM | -25% | 98% | 100% | 11% | > 500 nM | 34 nM |
| Cc1cc2c(F)c(Oc3cc(N4CCN(c5ccc(N)cc5F)CC4)ncn3)ccc2[nH]1 [Example 10] | > 100 nM | -12% |  | 8% | > 100 nM | 40% | > 100 nM | -19% | 20% | -4% | 13% | 33 nM | 142 nM |
| Cc1cc2c(F)c(Oc3cc(Nc4ccc(N5CCNCC5)cc4)ncn3)ccc2[nH]1 [Example 11] | > 100 nM | 92% |  | 59% | > 100 nM | 70% | 96 nM | 67% | 96% | 99% | 60% | > 500 nM | > 500 nM |
| Cc1cc2c(F)c(Oc3cc(Nc4ccc(N5CCN(C)CC5)c(F)c4)ncn3)ccc2[nH]1 [Example 14] | > 100 nM | 31% |  | 35% | > 100 nM | 53% | > 100 nM | 48% | 97% | 97% | 32% | 483 nM | > 500 nM |
| Cc1cc2c(F)c(Oc3cc(Nc4ccc(N5CCN(C)CC5)cn4)ncn3)ccc2[nH]1 [Example 15] | > 100 nM | 82% |  | 78% | > 100 nM | 32% | 36 nM | 79% | 97% | 100% | 84% | 332 nM | 290 nM |
| COc1cc(CCc2cc(Nc3cc(Oc4ccc5[nH]c(C)cc5c4F)ncn3)n[nH]2)cc(OC)c1 [Example 22] | > 100 nM | 18% |  | 9% | > 100 nM | 15% | > 100 nM | 25% | 96% | 98% | 19% | > 500 nM | 229 nM |
| CCN1CCN(c2ccc(Nc3ncnc(Oc4ccc5[nH]c(C)cc5c4F)c3F)cc2)CC1 [Example 25] | > 100 nM | 0% |  | 11% | > 100 nM | 69% | > 100 nM | -11% | 95% | 96% | 7% | > 500 nM | > 500 nM |
